Laboratory results reported in ChEMBL document CHEMBL1201862, “PubChem BioAssay data set” (2004).
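Cells were grown in 96-well plates and exposed to each compound for 48 hours at five concentrations; endpoints were interpolated linearly between bracketing concentrations, or set to the highest concentration if not reached. GI50: concentration for 50% inhibition of growth.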 Activity calls are given as the source filed them. Cut-off read from the data, not from the text of the source: active = GI50 up to about 1.1 µM and inactive = higher.

Experiments:
Assay in all cases: NCI-60 cell line screen, 48 h
[1] = tested on: SN12C
[2] = tested on: NCI-H460
[3] = tested on: HCT-15
[4] = tested on: Malme-3M
[5] = tested on: EKVX
[6] = tested on: LXFL 529
[7] = tested on: IGROV-1
[8] = tested on: CCRF-CEM
[9] = tested on: CAKI-1
[10] = tested on: DMS-273
[11] = tested on: SK-MEL-2
[12] = tested on: A498
[13] = tested on: HL-60
[14] = tested on: A549
[15] = tested on: UO-31
[16] = tested on: OVCAR-4
[17] = tested on: HOP-62
[18] = tested on: DLD-1
[19] = tested on: KM-20L2
[20] = tested on: NCI-H522
[21] = tested on: SF-295
[22] = tested on: SNB-75
[23] = tested on: UACC-257
[24] = tested on: SW-620
[25] = tested on: UACC-62
[26] = tested on: OVCAR-3
[27] = tested on: SF-268
[28] = tested on: LOX IMVI
[29] = tested on: HOP-92
[30] = tested on: RXF 393
[31] = tested on: OVCAR-5
[32] = tested on: ACHN
[33] = tested on: 786-0
[34] = tested on: SK-MEL-5
[35] = tested on: M14
[36] = tested on: TK-10
[37] = tested on: NCI-H226
[38] = tested on: U-251
[39] = tested on: SK-OV-3
[40] = tested on: NCI-H23
[41] = tested on: HT-29
[42] = tested on: SNB-19
[43] = tested on: K562
[44] = tested on: COLO 205
[45] = tested on: SF-539
[46] = tested on: HCT-116
[47] = tested on: OVCAR-8
[48] = tested on: SK-MEL-28
[49] = tested on: XF498
[50] = tested on: MCF7
[51] = tested on: KM12
[52] = tested on: DMS-114
[53] = tested on: Hs-578T
[54] = tested on: T47D
[55] = tested on: SR
[56] = tested on: DU-145
[57] = tested on: M19-MEL
[58] = tested on: HCC 2998
[59] = tested on: BT-549
[60] = tested on: MDA-N
[61] = tested on: NCI/ADR-RES
[62] = tested on: PC-3
[63] = tested on: MDA-MB-231
[64] = tested on: MOLT-4
[65] = tested on: RPMI-8226
[66] = tested on: MDA-MB-435

Measured: GI50

CC(=O)Nc1ccc(C(=O)NN2C(=O)C(Cl)C2c2ccccc2O)cc1 (centres undefined)
inactive: [1] > 100 µM | [2] 6.81 µM | [4] 82.2 µM | [5] 99.8 µM | [6] > 100 µM | [7] > 100 µM | [8] 4.9 µM | [9] > 100 µM | [10] 99.1 µM | [11] 15.7 µM | [12] > 100 µM | [13] 84.7 µM | [14] > 100 µM | [15] 34.4 µM | [16] > 100 µM | [17] 14.2 µM | [18] > 100 µM | [19] > 100 µM | [20] 36.2 µM | [21] 29.1 µM | [22] 36.8 µM | [23] > 100 µM | [24] > 100 µM | [25] 37.2 µM | [26] 3.26 µM | [27] 84.7 µM | [28] 13.2 µM | [29] 47.6 µM | [30] 24.1 µM | [31] > 100 µM | [32] > 100 µM | [33] 9.06 µM | [34] > 100 µM | [35] 23.8 µM | [36] 51.4 µM | [37] > 100 µM | [38] 15.8 µM | [39] 12.9 µM | [40] 19.7 µM | [41] 69 µM | [42] 36.6 µM | [43] > 100 µM | [44] 45.2 µM | [45] 42.1 µM | [46] > 100 µM | [47] 42.2 µM | [48] > 100 µM | [49] 28.1 µM
3.36 µM: [3]

C=C(C)[C@@H]1CC[C@]2(C)CC[C@]3(C)[C@H](CC[C@@H]4[C@@]5(C)CC[C@H](O)C(C)(C)[C@@H]5CC[C@]43C)[C@@H]12 [LUPEOL]
inactive: [50] 21.7 µM | [1] 36.5 µM | [2] 45.7 µM | [51] > 67 µM | [52] 65.8 µM | [4] > 89.3 µM | [5] 72.9 µM | [6] > 100 µM | [7] > 54.7 µM | [8] 22.1 µM | [9] > 81.1 µM | [10] > 100 µM | [11] > 100 µM | [12] 13.4 µM | [13] 47.4 µM | [53] 25.6 µM | [54] > 100 µM | [14] > 62.7 µM | [55] 42.8 µM | [56] > 100 µM | [57] > 100 µM | [58] > 100 µM | [15] > 47.8 µM | [59] 15.6 µM | [60] 32.7 µM | [16] > 100 µM | [17] > 58.3 µM | [18] > 100 µM | [19] > 100 µM | [20] 23.8 µM | [21] > 50.8 µM | [22] 38.2 µM | [23] > 42.7 µM | [24] > 48.2 µM | [61] 26.7 µM | [25] > 100 µM | [26] > 55.1 µM | [27] > 55.7 µM | [28] 19.5 µM | [29] 36.1 µM | [30] 14 µM | [31] > 100 µM | [32] > 55.1 µM | [62] 32.3 µM | [33] 37.2 µM | [34] > 74 µM | [35] > 94.6 µM | [36] > 79.6 µM | [63] 58.6 µM | [37] > 50.4 µM | [38] 21.9 µM | [64] 27.5 µM | [40] 61.5 µM | [41] > 78.2 µM | [42] > 47.3 µM | [43] > 46 µM | [44] > 100 µM | [45] > 88.7 µM | [46] 44.5 µM | [65] 53.7 µM | [47] 33.3 µM | [48] > 65.2 µM | [49] > 100 µM | [66] 19.4 µM
> 70.1 µM: [3]
